# Test results published in PubChem BioAssay AID248 (DTP/NCI, 2004).
# “And” between values parts separate entries of the source, which are not always exact repeats. Equal entries are not always repeated. Toxic doses and inconclusive results are not listed.
# Tested on: L1210 leukemia ip in BDF1 mice, survival T/C
# Assay: NCI In Vivo Anticancer Drug Screen. Data for tumor model L1210 Leukemia (intraperitoneal) in B6D2F1 (BDF1) mice
# Conditions: endpoint: mean survival time, higher = longer survival
# Summary of the method: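 Tumor cells were implanted, animals were treated, and survival was followed. The result divides the treated measurement by the vehicle-control measurement.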
# [1] = dose: 100.0 mg/kg/injection, schedule: Q01DX009 (ip), vehicle: saline with Tween-80
# [2] = dose: 100.0 mg/kg/injection, schedule: Q04DX003 (ip), vehicle: saline with Tween-80
# [3] = dose: 200.0 mg/kg/injection, schedule: Q01DX009 (ip), vehicle: saline with Tween-80
# [4] = dose: 200.0 mg/kg/injection, schedule: Q04DX003 (ip), vehicle: saline with Tween-80
# [5] = dose: 400.0 mg/kg/injection, schedule: Q01DX009 (ip), vehicle: saline with Tween-80
# [6] = dose: 400.0 mg/kg/injection, schedule: Q04DX003 (ip), vehicle: saline with Tween-80
# [7] = dose: 100.0 mg/kg/injection, schedule: Q01DX001 (ip), vehicle: carboxymethylcellulose (CMC)
# [8] = dose: 200.0 mg/kg/injection, schedule: Q01DX001 (ip), vehicle: carboxymethylcellulose (CMC)
# [9] = dose: 400.0 mg/kg/injection, schedule: Q01DX001 (ip), vehicle: carboxymethylcellulose (CMC)
# [10] = dose: 100.0 mg/kg/injection, schedule: Q01DX001 (ip), vehicle: saline
# [11] = dose: 200.0 mg/kg/injection, schedule: Q01DX001 (ip), vehicle: saline
# [12] = dose: 400.0 mg/kg/injection, schedule: Q01DX001 (ip), vehicle: saline
# [13] = dose: 100.0 mg/kg/injection, schedule: Q04DX002 (ip), vehicle: saline with Tween-80
# [14] = dose: 200.0 mg/kg/injection, schedule: Q04DX002 (ip), vehicle: saline with Tween-80
# [15] = dose: 400.0 mg/kg/injection, schedule: Q04DX002 (ip), vehicle: saline with Tween-80
smiles,measurement,setting,value
Cc1ccc(C(=O)Nc2ncn(C3CC(O)C(CO)O3)c(=O)n2)cc1 (stereo not drawn),T/C,"dose: 6.25 mg/kg/injection, schedule: Q04DX003 (ip), vehicle: saline with Tween-80",114 % of control
same,T/C,"dose: 12.5 mg/kg/injection, schedule: Q01DX003 (ip), vehicle: saline with Tween-80",245 % of control
same,T/C,"dose: 12.5 mg/kg/injection, schedule: Q01DX005 (ip), vehicle: saline",187 % of control
same,T/C,"dose: 12.5 mg/kg/injection, schedule: Q04DX003 (ip), vehicle: saline with Tween-80",172 % of control
same,T/C,"dose: 25.0 mg/kg/injection, schedule: Q01DX003 (ip), vehicle: saline with Tween-80",152 % of control
same,T/C,"dose: 25.0 mg/kg/injection, schedule: Q04DX003 (ip), vehicle: saline with Tween-80",156 % of control and 185 % of control
same,T/C,"dose: 50.0 mg/kg/injection, schedule: Q01DX003 (ip), vehicle: saline with Tween-80",111 % of control
same,T/C,"dose: 50.0 mg/kg/injection, schedule: Q01DX005 (ip), vehicle: saline",90 % of control
Cc1cc(OC(=O)Nc2cccc(Cl)c2C)ccc1Cl,T/C,[1],99 % of control
same,T/C,[2],93 % of control
same,T/C,[3],99 % of control
same,T/C,[4],91 % of control
same,T/C,[5],89 % of control
same,T/C,[6],98 % of control
CCCC(=O)NC1Cc2cc(C)cc(C)c21 (stereo not drawn),T/C,"dose: 50.0 mg/kg/injection, schedule: Q04DX002 (ip), vehicle: Klucel (hydroxypropylcellulose) (HPC)",100 % of control
same,T/C,"dose: 100.0 mg/kg/injection, schedule: Q04DX002 (ip), vehicle: Klucel (hydroxypropylcellulose) (HPC)",111 % of control
same,T/C,"dose: 200.0 mg/kg/injection, schedule: Q04DX002 (ip), vehicle: Klucel (hydroxypropylcellulose) (HPC)",96 % of control
c1ccc(Oc2ccccn2)cc1,T/C,"dose: 50.0 mg/kg/injection, schedule: Q04DX003 (ip), vehicle: Klucel (hydroxypropylcellulose) (HPC)",91 % of control
same,T/C,"dose: 100.0 mg/kg/injection, schedule: Q04DX003 (ip), vehicle: Klucel (hydroxypropylcellulose) (HPC)",94 % of control
same,T/C,"dose: 200.0 mg/kg/injection, schedule: Q04DX003 (ip), vehicle: Klucel (hydroxypropylcellulose) (HPC)",94 % of control
same,T/C,"dose: 400.0 mg/kg/injection, schedule: Q04DX003 (ip), vehicle: Klucel (hydroxypropylcellulose) (HPC)",97 % of control
COc1ccc(OC)c(/C=C/c2ccnc3ccccc23)c1,T/C,"dose: 50.0 mg/kg/injection, schedule: Q01DX001 (ip), vehicle: carboxymethylcellulose (CMC)",93 % of control
same,T/C,[7],96 % of control
same,T/C,[8],91 % of control
same,T/C,[9],87 % of control
c1ccc2sc(SCSc3nc4ccccc4s3)nc2c1,T/C,"dose: 50.0 mg/kg/injection, schedule: Q04DX003 (ip), vehicle: saline with Tween-80",93 % of control
same,T/C,[2],90 % of control
same,T/C,[4],100 % of control
O=C(Nc1ccc([N+](=O)[O-])cc1)c1cc(N2CCOCC2)ccn1,T/C,[10],89 % of control and 91 % of control
same,T/C,[11],94 % of control and 95 % of control
same,T/C,[12],95 % of control and 91 % of control
C[C@]12C=CC(=O)C=C1CC[C@H]1[C@@H]3C[C@@H](O)[C@](O)(C(=O)CO)[C@@]3(C)C[C@H](O)[C@@]12F,T/C,"dose: 50.0 mg/kg/injection, schedule: Q04DX003 (sc), vehicle: steriod suspending solution",102 % of control
same,T/C,"dose: 100.0 mg/kg/injection, schedule: Q01DX001 (sc), vehicle: steriod suspending solution",105 % of control
same,T/C,"dose: 100.0 mg/kg/injection, schedule: Q04DX003 (sc), vehicle: steriod suspending solution",97 % of control
same,T/C,"dose: 200.0 mg/kg/injection, schedule: Q01DX001 (sc), vehicle: steriod suspending solution",107 % of control
same,T/C,"dose: 200.0 mg/kg/injection, schedule: Q04DX003 (sc), vehicle: steriod suspending solution",106 % of control
same,T/C,"dose: 400.0 mg/kg/injection, schedule: Q01DX001 (sc), vehicle: steriod suspending solution",105 % of control
same,T/C,"dose: 400.0 mg/kg/injection, schedule: Q04DX003 (sc), vehicle: steriod suspending solution",110 % of control
NC(=O)NCc1ccc(CNC(N)=O)cc1,T/C,[13],98 % of control
same,T/C,[14],98 % of control
same,T/C,[15],115 % of control
Cc1ccc(C(=O)OCc2ccc3c(c2)OCO3)cc1,T/C,"dose: 222.0 mg/kg/injection, schedule: Q01DX Z (ip), vehicle: methylcellulose (MC)",97 % of control
same,T/C,"dose: 333.0 mg/kg/injection, schedule: Q01DX Z (ip), vehicle: methylcellulose (MC)",89 % of control
same,T/C,"dose: 500.0 mg/kg/injection, schedule: Q01DX Z (ip), vehicle: methylcellulose (MC)",89 % of control
COC1OC(C[N+](=O)[O-])C(OC(C)=O)C(OC(C)=O)C1OC(C)=O (stereo not drawn),T/C,[13],102 % of control
same,T/C,[14],109 % of control
same,T/C,[15],95 % of control
NOC(=O)C(O)(c1ccccc1)C1CCCCC1 (stereo not drawn),T/C,"dose: 75.0 mg/kg/injection, schedule: Q01DX001 (ip), vehicle: other",104 % of control
same,T/C,"dose: 150.0 mg/kg/injection, schedule: Q01DX001 (ip), vehicle: other",98 % of control
same,T/C,"dose: 300.0 mg/kg/injection, schedule: Q01DX001 (ip), vehicle: other",98 % of control
CCCCCCCCSC(=O)N(C(C)C)C(C)C,T/C,"dose: 50.0 mg/kg/injection, schedule: Q04DX002 (ip), vehicle: saline",100 % of control
same,T/C,"dose: 100.0 mg/kg/injection, schedule: Q04DX002 (ip), vehicle: saline",100 % of control and 105 % of control
same,T/C,"dose: 200.0 mg/kg/injection, schedule: Q04DX002 (ip), vehicle: saline",100 % of control
same,T/C,"dose: 400.0 mg/kg/injection, schedule: Q04DX002 (ip), vehicle: saline",108 % of control and 86 % of control
Cc1cc(C)c(O)c(N=Nc2ccccc2)c1,T/C,"dose: 100.0 mg/kg/injection, schedule: Q04DX003 (ip), vehicle: saline sonified",95 % of control
same,T/C,"dose: 200.0 mg/kg/injection, schedule: Q04DX003 (ip), vehicle: saline sonified",93 % of control
same,T/C,"dose: 400.0 mg/kg/injection, schedule: Q04DX003 (ip), vehicle: saline sonified",91 % of control
C=CCOc1ccnc(N)n1,T/C,[1],90 % of control
same,T/C,[2],105 % of control
same,T/C,[3],95 % of control
same,T/C,[4],100 % of control
same,T/C,[5],100 % of control
same,T/C,[6],102 % of control
COC(=O)C#CBr,T/C,"dose: 3.13 mg/kg/injection, schedule: Q01DX009 (ip), vehicle: other",108 % of control
same,T/C,"dose: 6.25 mg/kg/injection, schedule: Q01DX009 (ip), vehicle: other",97 % of control
CC(C)=CCCOC(N)=O,T/C,[2],104 % of control
same,T/C,[4],102 % of control
same,T/C,[6],98 % of control
CCCCCOc1cc(C(C)=O)cc(OC)c1OC(=O)c1cc([N+](=O)[O-])cc([N+](=O)[O-])c1,T/C,[1],94 % of control
same,T/C,[3],94 % of control
same,T/C,[5],102 % of control
CCOC(=O)C(NC(=O)c1ccccc1)C(=O)OCC,T/C,"dose: 50.0 mg/kg/injection, schedule: Q01DX001 (ip), vehicle: saline",96 % of control
same,T/C,[10],96 % of control
same,T/C,[11],96 % of control
same,T/C,[12],96 % of control
CC(C)(O)CNS(=O)(=O)c1ccc(Br)cc1,T/C,"dose: 100.0 mg/kg/injection, schedule: Q01DX009 (ip), vehicle: Klucel (hydroxypropylcellulose) (HPC)",105 % of control
same,T/C,"dose: 200.0 mg/kg/injection, schedule: Q01DX009 (ip), vehicle: Klucel (hydroxypropylcellulose) (HPC)",101 % of control
O=[N+]([O-])c1ccc(O)c(CN(Cc2ccccc2)Cc2c(O)ccc3ccccc23)c1,T/C,[7],98 % of control
same,T/C,[8],93 % of control
same,T/C,[9],96 % of control
c1cc2c(c(OCC3=NCCN3)c1)CCC2,T/C,"dose: 10.0 mg/kg/injection, schedule: Q01DX009 (ip), vehicle: Klucel (hydroxypropylcellulose) (HPC)",107 % of control
same,T/C,"dose: 20.0 mg/kg/injection, schedule: Q01DX009 (ip), vehicle: Klucel (hydroxypropylcellulose) (HPC)",105 % of control
same,T/C,"dose: 40.0 mg/kg/injection, schedule: Q01DX009 (ip), vehicle: Klucel (hydroxypropylcellulose) (HPC)",93 % of control
